Laboratory results taken from PubChem BioAssay AID652194 (Johns Hopkins Ion Channel Center, 2013).
Activity calls are given as the source filed them.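 Rule for the calls: active = hERG flux cut by over 30% at some tested dose, with a fitted dose response curve; inactive = no hERG inhibition at any dose or no curve.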

Biological target: Voltage-gated inwardly rectifying potassium channel KCNH2 (Homo sapiens) (UniProt Q12809)
Experiment: hERG channel inhibition in selectivity testing, SAR follow-up, selectivity assay for TASK1 inhibitor project, FluxOR thallium flux, concentration-response, CHO cells (AID 652194)
Settings: hERG-expressing cells, FluxOR thallium flux fluorescence; at 30 µM (top of the series)

Chain of Voltage-gated inwardly rectifying potassium channel KCNH2 (Homo sapiens) (Q12809 whole entry, looked up): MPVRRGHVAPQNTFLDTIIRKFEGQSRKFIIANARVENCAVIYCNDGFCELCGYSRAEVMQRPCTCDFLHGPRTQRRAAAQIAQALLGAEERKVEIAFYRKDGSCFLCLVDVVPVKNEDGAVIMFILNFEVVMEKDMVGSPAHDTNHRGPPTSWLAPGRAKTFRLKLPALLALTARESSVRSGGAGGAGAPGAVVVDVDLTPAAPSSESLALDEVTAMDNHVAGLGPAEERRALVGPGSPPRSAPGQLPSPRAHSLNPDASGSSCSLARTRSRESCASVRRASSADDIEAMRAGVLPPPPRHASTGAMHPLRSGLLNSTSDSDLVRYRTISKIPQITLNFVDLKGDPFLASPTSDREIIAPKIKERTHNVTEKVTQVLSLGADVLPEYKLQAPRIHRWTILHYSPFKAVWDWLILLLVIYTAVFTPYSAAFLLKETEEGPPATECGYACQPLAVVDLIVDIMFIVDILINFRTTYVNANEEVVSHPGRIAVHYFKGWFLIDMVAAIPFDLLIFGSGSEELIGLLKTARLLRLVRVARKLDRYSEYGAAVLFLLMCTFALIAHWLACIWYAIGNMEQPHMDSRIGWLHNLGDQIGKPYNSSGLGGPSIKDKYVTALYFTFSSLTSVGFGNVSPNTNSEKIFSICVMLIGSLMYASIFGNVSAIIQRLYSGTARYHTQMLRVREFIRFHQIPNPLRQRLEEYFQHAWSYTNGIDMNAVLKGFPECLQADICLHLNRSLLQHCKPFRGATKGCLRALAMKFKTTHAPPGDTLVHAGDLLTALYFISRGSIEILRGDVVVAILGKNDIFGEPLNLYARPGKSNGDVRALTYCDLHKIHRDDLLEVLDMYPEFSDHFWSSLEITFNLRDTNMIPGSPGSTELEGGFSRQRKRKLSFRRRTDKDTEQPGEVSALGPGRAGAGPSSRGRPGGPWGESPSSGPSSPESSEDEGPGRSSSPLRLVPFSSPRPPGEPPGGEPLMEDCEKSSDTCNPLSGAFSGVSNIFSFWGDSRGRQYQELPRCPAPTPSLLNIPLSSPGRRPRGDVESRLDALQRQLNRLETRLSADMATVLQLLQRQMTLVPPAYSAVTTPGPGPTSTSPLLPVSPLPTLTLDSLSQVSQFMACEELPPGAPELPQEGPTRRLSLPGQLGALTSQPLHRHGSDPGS

Cc1cccc(C(=O)Nc2cccc(NC(=O)c3ccccc3)c2)c1
flux ratio, lower = inhibition: inactive

CCOc1ccccc1NC(=O)c1cccc(NC(=O)c2ccccc2C)c1
flux ratio, lower = inhibition: inactive
